Assay results: US10787430B2, “Hemoglobin modifier compounds and uses thereof” (FronThera U.S. Pharmaceuticals LLC, priority 2016, dated 2020)

Columns and labels:
[1] = biological target: T1, hemoglobin (normal human adult blood) (Homo sapiens, UniProt P68871+P69905); experiment: Time-dependent oxygen equilibrium curve (OEC) studies in normal whole blood; format: cell-based; details: 2 mM compound, 2% DMSO, normal human blood 20% hematocrit, 37° C., 1 h
T1 construct: Normal whole blood was collected from adult healthy donors; from tissue; host or cells: normal human whole blood (red blood cells), adult healthy donors
Protocol: (§1) Materials: Normal whole blood was collected from adult healthy donors at the Virginia Commonwealth University after informed consent. The use of these human samples is in accordance with regulations of the IRB for Protection of Human Subjects. Compounds (50 mM-100 mM concentration in DMSO) were stored at 15° C. or room temperature until use.
The time-dependent OEC studies were conducted on normal human adult blood samples with hematocrit value of 20% in the absence or presence of effectors solubilized in DMSO at final drug and DMSO concentrations of 2 mM and 2%, respectively. […] The mixture was further incubated at 37° C. with shaking. […] After equilibration, the sample was removed by syringe and aspirated into a ABL 700 series table top automated blood gas analyzer (Radiometer America, Inc., Westlake, Ohio) to determine values of total hemoglobin (tHb), methemoglobin (metHb), hematocrit (Hct), pH, partial pressure of oxygen (pO2), and Hb oxygen saturation values (sO2). The measured values of sO2 and pO2 at each partial pressure of oxygen are then subjected to a non-linear regression analysis using the program Scientist (Micromath, Salt Lake City, Utah) with the following equation: […]
This equation was used to calculate P50 and Hill coefficient (N) values. Corresponding control experiments without the test compound (P50control) but containing DMSO were also performed. GBT440 was used as a positive control.

[2] = biological target: T2, hemoglobin (20% hct blood) (Homo sapiens, UniProt P68871+P69905); experiment: Dose-dependent whole blood OEC studies; format: cell-based; details: 37° C., 1 hr
T2 construct: Normal whole blood was collected from adult healthy donors; from tissue; host or cells: normal human whole blood (red blood cells), adult healthy donors
Protocol: as §1
To 2 ml 20% hct blood, 0.2 or 0.5 or 1 mM compound was added and kept shaking at 37° C. for 1 hr. OEC analysis was performed as described above to determine partial pressure of oxygen (pO2) and Hb oxygen saturation values (sO2). A control without compound but containing equivalent amount of DMSO was performed (1%). GBT440 was used as a positive control. Table 2 below lists the delta p50% values.

T1 sequence (P69905 2-142 limits assumed): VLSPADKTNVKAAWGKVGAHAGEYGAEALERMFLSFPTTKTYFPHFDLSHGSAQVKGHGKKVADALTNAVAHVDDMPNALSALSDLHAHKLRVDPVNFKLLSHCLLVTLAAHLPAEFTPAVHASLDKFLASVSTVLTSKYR
T1 sequence (P68871 2-147 limits assumed): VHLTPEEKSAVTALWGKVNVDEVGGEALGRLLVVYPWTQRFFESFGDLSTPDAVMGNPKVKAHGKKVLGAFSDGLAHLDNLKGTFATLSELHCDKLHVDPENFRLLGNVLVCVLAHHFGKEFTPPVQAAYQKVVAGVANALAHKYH
T2 sequence (P69905 2-142 limits assumed): as the sequence (P69905 2-142 limits assumed) above
T2 sequence (P68871 2-147 limits assumed): as the sequence (P68871 2-147 limits assumed) above

SMILES	delta p50 [1] [%]	also measured
CC(C)n1nccc1-c1ncccc1COc1ccc2c(c1C=O)CCO2 [Example 2, 5-((2-(1-isopropyl-1H-pyrazol-5-yl)pyridin-3-yl)methoxy)-2,3-dihydrobenzofuran-4-carbaldehyde]	−78	–
CC(C)n1nccc1-c1ncccc1COc1cc2c(cc1C=O)OCC2 [Example 3, 5-((2-(1-isopropyl-1H-pyrazol-5-yl)pyridin-3-yl)methoxy)-2,3-dihydrobenzofuran-6-carbaldehyde]	−62	–
CC(C)n1nccc1-c1ncccc1COc1ccc2c(c1C=O)OCC2 [Example 4, 6-((2-(1-isopropyl-1H-pyrazol-5-yl)pyridin-3-yl)methoxy)-2,3-dihydrobenzofuran-7-carbaldehyde]	−51	–
CC(C)n1nccc1-c1ncccc1COc1ccc2ccoc2c1C=O [Example 5, 6-((2-(1-isopropyl-1H-pyrazol-5-yl)pyridin-3-yl)methoxy)benzofuran-7-carbaldehyde]	−77	–
CC(C)n1nccc1-c1ncccc1COc1ccc2c(c1C=O)OCO2 [Example 6, 5-((2-(1-isopropyl-1H-pyrazol-5-yl)pyridin-3-yl)methoxy)benzo[d][1,3]dioxole-4-carbaldehyde]	−66	–
CC(C)n1nccc1-c1ncccc1COc1ccc2c(c1C=O)OCCO2 [Example 7, 6-((2-(1-isopropyl-1H-pyrazol-5-yl)pyridin-3-yl)methoxy)-2,3-dihydrobenzo[b][1,4]dioxine-5-carbaldehyde]	−59	–
CC(C)n1nccc1-c1ncccc1COc1ccc2c(c1C=O)OC(F)(F)O2 [Example 8, 2,2-difluoro-5-((2-(1-isopropyl-1H-pyrazol-5-yl)pyridin-3-yl)methoxy)benzo[d][1,3]dioxole-4-carbaldehyde]	−68	–
CC(C)n1nccc1-c1ncccc1COc1ccc2c(c1C=O)C(O)C(F)(F)O2 (stereo not drawn) [Example 9, 2,2-difluoro-3-hydroxy-5-((2-(1-isopropyl-1H-pyrazol-5-yl)pyridin-3-yl)methoxy)-2,3-dihydrobenzofuran-4-carbaldehyde]	−64	–
CC(C)n1nccc1-c1ncccc1COc1ccc2c(c1C=O)C(O)C(F)(F)C2 (stereo not drawn) [Example 10, 2,2-difluoro-3-hydroxy-5-((2-(1-isopropyl-1H-pyrazol-5-yl)pyridin-3-yl)methoxy)-2,3-dihydro-1H-indene-4-carbaldehyde]	−68	–
CC(C)n1nccc1-c1ncccc1COc1ccn2nnnc2c1C=O [Example 13, 7-((2-(1-isopropyl-1H-pyrazol-5-yl)pyridin-3-yl)methoxy)tetrazolo[1,5-a]pyridine-8-carbaldehyde]	−9	–
CC(C)n1nccc1-c1ncccc1COc1ccc2ocnc2c1C=O [Example 14, 5-((2-(1-isopropyl-1H-pyrazol-5-yl)pyridin-3-yl)methoxy)benzo[d]oxazole-4-carbaldehyde]	−63	–
CC(C)n1nccc1-c1ncccc1COc1ccc2ncoc2c1C=O [Example 15, 6-((2-(1-isopropyl-1H-pyrazol-5-yl)pyridin-3-yl)methoxy)benzo[d]oxazole-7-carbaldehyde]	−81	–
CC(C)n1nccc1-c1ncccc1COc1ccc2sccc2c1C=O [Example 20, 5-((2-(1-isopropyl-1H-pyrazol-5-yl)pyridin-3-yl)methoxy)benzo[b]thiophene-4-carbaldehyde]	−74	–
CC(C)n1nccc1-c1ncccc1COc1ccc2c(c1C=O)CCS2(=O)=O [Example 21, 5-((2-(1-isopropyl-1H-pyrazol-5-yl)pyridin-3-yl)methoxy)-2,3-dihydrobenzo[b]thiophene-4-carbaldehyde 1,1-dioxide]	−72	–
CC(C)n1nccc1-c1ncccc1CSc1cccc(O)c1C=O [Example 23, 2-hydroxy-6-(((2-(1-isopropyl-1H-pyrazol-5-yl)pyridin-3-yl)methyl)thio)benzaldehyde]	−62	–
[2H]C(=O)c1c(O)cccc1OCc1cccnc1-c1ccnn1C(C)C [Example 24]	−47	–
[2H]C([2H])([2H])C(n1nccc1-c1ncccc1COc1cccc(O)c1C=O)C([2H])([2H])[2H] [Example 30, 2-hydroxy-6-((2-(1-(propan-2-yl-1,1,1,3,3,3-d6)-1H-pyrazol-5-yl)pyridin-3-yl)methoxy)benzaldehyde]	−85	–
CC(C)n1nccc1-c1nn(C)c(=O)cc1COc1cccc(O)c1C=O [Example 59, 2-hydroxy-6-((3-(1-isopropyl-1H-pyrazol-5-yl)-1-methyl-6-oxo-1,6-dihydropyridazin-4-yl)methoxy)benzaldehyde]	−54	–
CC(C)n1nccc1-c1cn(C)c(=O)cc1COc1cccc(O)c1C=O [Example 60, 2-hydroxy-6-((5-(1-isopropyl-1H-pyrazol-5-yl)-1-methyl-2-oxo-1,2-dihydropyridin-4-yl)methoxy)benzaldehyde]	−69	–
CC(C)n1nccc1-c1nccc2c1C(Oc1cccc(O)c1C=O)CO2 (stereo not drawn) [Example 61g, 2-hydroxy-6-((4-(1-isopropyl-1H-pyrazol-5-yl)-2,3-dihydrofuro[3,2-c]pyridin-3-yl)oxy)benzaldehyde]	−59	–
CC(C)n1nccc1-c1nccc2c1[C@@H](Oc1cccc(O)c1C=O)CO2 [Example 62a, (R)-2-hydroxy-6-((4-(1-isopropyl-1H-pyrazol-5-yl)-2,3-dihydrofuro[3,2-c]pyridin-3-yl)oxy)benzaldehyde]	−63	–
CC(C)n1nccc1-c1nccc2c1[C@H](Oc1cccc(O)c1C=O)CO2 [Example 62b, (S)-2-hydroxy-6-((4-(1-isopropyl-1H-pyrazol-5-yl)-2,3-dihydrofuro[3,2-c]pyridin-3-yl)oxy)benzaldehyde]	−64	–
[2H]C([2H])(Oc1cccc(O)c1C=O)c1c(F)ccnc1-c1ccnn1C(C)C [Example 75, 2-((4-fluoro-2-(1-isopropyl-1H-pyrazol-5-yl)pyridin-3-yl)methoxy-d2)-6-hydroxybenzaldehyde]	–	delta p50 0.2 mM ([2]; 0.2 mM compound): −13.0%; delta p50 0.5 mM ([2]; 0.5 mM compound): −53.7%
